Publication PMC10164177, “The difference in the cellular uptake of tocopherol and tocotrienol is influenced by their affinities to albumin” (Scientific Reports, 2023)

Columns and labels:
[1] = molecular target: T1, BSA (Bos taurus, UniProt P02769); assay: Fluorescence quenching binding parameters between vitamin E and BSA; parameters: species or system bovine; details: 2.0 μM BSA, room temperature, mean ± S.E. (n = 3); for Stern–Volmer constant (Ksv) / Kd: excitation 280 nm, emission 340 nm; for Kd: read-out: apparent binding constant (Ka) (converted)
T1 construct: Bovine serum albumin (BSA; Fatty Acid/IgG/Protease-Free); purchased FUJIFILM Wako Pure Chemical Corporation, Ltd. (Osaka, Japan)
T1 sequence (P02769 25-607): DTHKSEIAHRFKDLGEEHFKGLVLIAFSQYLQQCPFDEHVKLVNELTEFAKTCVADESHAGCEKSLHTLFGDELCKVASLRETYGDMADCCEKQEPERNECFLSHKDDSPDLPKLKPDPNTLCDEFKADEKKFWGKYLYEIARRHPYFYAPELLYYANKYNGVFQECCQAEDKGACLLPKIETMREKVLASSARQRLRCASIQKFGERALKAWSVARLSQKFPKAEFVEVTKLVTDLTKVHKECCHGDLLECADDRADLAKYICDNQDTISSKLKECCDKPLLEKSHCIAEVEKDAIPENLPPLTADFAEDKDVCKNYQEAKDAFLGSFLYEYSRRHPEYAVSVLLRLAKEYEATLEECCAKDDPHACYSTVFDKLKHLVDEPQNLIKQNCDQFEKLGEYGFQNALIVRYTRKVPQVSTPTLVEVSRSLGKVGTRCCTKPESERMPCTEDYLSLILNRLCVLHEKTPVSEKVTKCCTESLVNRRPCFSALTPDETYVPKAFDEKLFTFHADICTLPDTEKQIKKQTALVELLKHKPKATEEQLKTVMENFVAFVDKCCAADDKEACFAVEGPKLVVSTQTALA
Description: The binding parameters of each Toc or T3 analog to BSA were measured with slight modifications to a previously described procedure[32],[34]. Each Toc or T3 analog was dissolved in DMSO at 10 mM, and added to a quartz cell containing 3.0 mL of 2.0 μM BSA stock solution to achieve a final concentration of 1.0–225.0 μM. […] Fluorescence spectra were recorded at room temperature using FP-6200 (JASCO, Tokyo, Japan) at an excitation wavelength of 280 nm and emission wavelengths from 300 to 500 nm. The intensity at 340 nm was used to calculate the Stern–Volmer constant (Ksv) by the following equation[39]: F0/F = 1 + Ksv[VE]. We also calculated the apparent binding constant (Ka) and the number of binding sites (n) by the following equation[40]: log((F0 − F)/F) = nlogKa − nlog(1/([VE] − [BSA](F0 − F)/F0)). Abbreviations in the above equations refer to follows: F0, initial fluorescence intensity; F, fluorescence intensity in the presence of each Toc or T3 analog; [VE], molar concentration of each Toc or T3 analog; [BSA], original BSA concentration. The same measurements were performed using a buffer solution without BSA, and the F values were calculated using the measured fluorescence intensity as a blank.

[2] = tested on: Jurkat cells; parameters: method as in PMID 15753172; details: 1 μM α-Toc or α-T3, 24 hours; cited from earlier work
[3] = tested on: THP-1 monocytes; assay: Cellular uptake in THP-1 monocytes at low temperature (4 °C); assay type: cell-based, human; details: 20.0 μM, 2 h; for effect of BSA addition on cellular uptake at low temperature: serum-depleted medium with 0–200.0 μM BSA
Description: THP-1 monocytes preincubated in 10% FBS/RPMI medium were collected. The collected cells (2.5 × 10^6) were suspended in 1.0 mL of 10% PBS/RPMI medium containing 0, 0.2, 2.0, 20.0, 32.4, and 200.0 μM BSA on ice. This suspension was immediately mixed with 4.0 mL of 10% PBS/RPMI medium containing BSA and vitamin E. The final composition was 5.0 mL of 10% PBS/RPMI medium containing 0, 0.2, 2.0, 20.0, 32.4, or 200.0 μM BSA, and 20.0 μM α-Toc or α-T3. Cells were incubated at 4 °C with slow rotation in a tube rotator. After 2 h incubation, the cell lysate was prepared as above, and vitamin E and protein levels were measured.
Vitamin E was extracted from the cell lysates according to the procedure described in our previous study. Tocol (Tama Biochemical, Tokyo, Japan) was used as an internal standard. The extract was analyzed by liquid chromatography-tandem mass spectrometry (LC–MS/MS). The LC–MS/MS system consisted of an ExionLC system and a 4000QTRAP mass spectrometer (SCIEX, Tokyo, Japan). An Inersil SIL-100A-5 column (4.6 mm × 250 mm; GL Science, Tokyo, Japan) was eluted with a mobile phase consisting of hexane/1,4-dioxane/2-propanol (100:4:0.5, v/v/v). The flow rate was 1.0 mL/min, and the column temperature was 40 °C. Vitamin E was detected in the multiple reaction monitoring (MRM) mode (Table 1) under atmospheric pressure chemical ionization. The ion source parameters were as follows: curtain gas, 45.0 psi; collision gas, 8.0 psi; nebulizer current, − 3.0 μA; temperature, 350.0 °C; ion source gas 1, 60.0 psi; interface heater, ON.

[4] = tested on: THP-1 monocytes; assay: Cellular uptake in THP-1 monocytes with ATP synthesis inhibitors; assay type: cell-based, human; details: 10.0 μM vitamin E, 10.0 μM BSA, 1 mM DNP or 10 mM NaN3 + 5 mM 2DG, 1 h, 37 °C, vs control
Description: To further investigate cellular uptake mechanism, cell culture study was conducted using two ATP synthesis inhibitors as follows: (1) 1 mM 2,4-dinitrophenol or (2) a mixture of 10 mM sodium azide and 5 mM 2-deoxy-D-glucose[45]. THP-1 monocytes (2.5 × 10^6) preincubated in 10% FBS/RPMI medium were collected, suspended in 1.0 mL of PBS(+)[45] containing each inhibitor, and preincubated for 10 min at 37 °C under slow rotation in a tube rotator. […] Control samples were similarly prepared without the addition of inhibitors and incubated for 1 h. Vitamin E and protein levels were measured as described above.
Figure S1 The effect of two ATP synthesis inhibitors (1 mM 2,4-dinitrophenol (DNP) or a mixture of 10 mM sodium azide and 5 mM 2-deoxy-D-glucose (NaN3+2DG)) on the […]
Cells were incubated in PBS(+) […]
hour. Control samples were similarly incubated without the addition of inhibitors. […]
the main article. Values are expressed as mean ± SE of three independent experiments.
The statical significance of the results was analyzed using Dunnett's test, where p < 0.05 was considered statistically significant . […]
and samples treated with ATP synthesis inhibitor.
(1 picture or pasted object on this page, not shown here)

[5] = tested on: THP-1 monocytes; assay: Cellular uptake of vitamin E in THP-1 monocytes (37 °C, LC–MS/MS); assay type: cell-based, human; details: 20.0 μM analog, serum-depleted medium with 0–200.0 μM BSA, 2 h
Description: THP-1 monocytes (2.5 × 10^6 cells) were preincubated in 5.0 mL of 10% FBS/RPMI medium. The cells (2.5 × 10^6 cells) were also preincubated in 5.0 mL of FBS-free 10% PBS/RPMI medium in the absence or presence of 0.2, 2.0, 20.0, 32.4, and 200.0 μM BSA (each medium was prepared by dissolving the 2.0 mM BSA stock solution in 10% PBS/RPMI medium). After 24 h of these preincubations, 5.0 μL of each vitamin E stock solution was added to 10% FBS/RPMI medium or 10% PBS/RPMI medium at a final concentration of 20.0 μM and further incubated for 2 h. […] The incubated cells were collected by centrifugation and washed with PBS. The cells were resuspended in 0.6 mL water and homogenized on ice. A part of the lysate (0.5 mL) was used to analyze vitamin E (described below), and the remaining 0.1 mL was used to quantify protein by the BCA Protein Assay (Thermo Fisher Scientific).
Vitamin E was extracted from the cell lysates according to the procedure described in our previous study. Tocol (Tama Biochemical, Tokyo, Japan) was used as an internal standard. The extract was analyzed by liquid chromatography-tandem mass spectrometry (LC–MS/MS). The LC–MS/MS system consisted of an ExionLC system and a 4000QTRAP mass spectrometer (SCIEX, Tokyo, Japan). […] Vitamin E was detected in the multiple reaction monitoring (MRM) mode (Table 1) under atmospheric pressure chemical ionization. […]

[6] = tested on: PC-3 cells; parameters: method as in PMID 21400505; details: 50 μM γ-Toc or 10 μM γ-T3, 6 hours; cited from earlier work
[7] = tested on: LNCaP cells; parameters: method as in PMID 21400505; details: 50 μM γ-Toc or 10 μM γ-T3, 6 hours; cited from earlier work

Row | SMILES | Stern–Volmer constant (Ksv) [1] | Kd [1] [µM] | number of binding site (n) [1] | cellular uptake relative to α-Toc [2] [fold] | cellular concentration compared with α-Toc at low temperature ([3]; BSA-containing medium) | effect of BSA addition on cellular uptake at low temperature [3] | effect of ATP synthesis inhibitors on cellular uptake [4] | effect of BSA addition on cellular concentration [5] | cellular uptake compared with γ-Toc [6] | cellular uptake compared with γ-Toc [7]
1 | Cc1cc(O)c(C)c2c1O[C@](C)(CCC[C@H](C)CCC[C@H](C)CCCC(C)C)CC2 [β-Toc] | 1.00 ± 0.02 × 10^4 M^−1 | 95.2 | 0.69 ± 0.01 |  |  |  |  |  |  | 
2 | CC(C)=CCC/C(C)=C/CC/C(C)=C/CC[C@]1(C)CCc2c(C)c(O)c(C)c(C)c2O1 [α-T3] | 1.19 ± 0.07 × 10^4 M^−1 | 69.4 | 0.70 ± 0.04 | 6.5 | slightly higher than that of α-Toc | did not observe the BSA-induced increase |  |  |  | 
3 | CC(C)=CCC/C(C)=C/CC/C(C)=C/CC[C@]1(C)CCc2c(C)c(O)cc(C)c2O1 [β-T3] | 1.39 ± 0.13 × 10^4 M^−1 | 59.5 | 0.76 ± 0.00 |  |  |  |  |  |  | 
4 | Cc1cc(O)cc2c1O[C@](C)(CCC[C@H](C)CCC[C@H](C)CCCC(C)C)CC2 [δ-Toc] | 0.89 ± 0.04 × 10^4 M^−1 | 105 | 0.71 ± 0.01 |  |  |  | No significance |  |  | 
5 | Cc1c(C)c2c(c(C)c1O)CC[C@@](C)(CCC[C@H](C)CCC[C@H](C)CCCC(C)C)O2 [α-Toc] | 0.93 ± 0.06 × 10^4 M^−1 | 99 | 0.69 ± 0.02 |  |  | reduced upon the addition of BSA |  | particularly pronounced |  | 
6 | Cc1c(O)cc2c(c1C)O[C@](C)(CCC[C@H](C)CCC[C@H](C)CCCC(C)C)CC2 [γ-Toc] | 0.82 ± 0.01 × 10^4 M^−1 | 115 | 0.71 ± 0.02 |  |  |  |  |  |  | 
7 | CC(C)=CCC/C(C)=C/CC/C(C)=C/CC[C@]1(C)CCc2cc(O)c(C)c(C)c2O1 [γ-T3] | 1.35 ± 0.01 × 10^4 M^−1 | 62.1 | 0.74 ± 0.02 |  |  |  |  |  | higher cellular uptake than γ-Toc | higher cellular uptake than γ-Toc
8 | CC(C)=CCC/C(C)=C/CC/C(C)=C/CC[C@]1(C)CCc2cc(O)cc(C)c2O1 [δ-T3] | 1.51 ± 0.02 × 10^4 M^−1 | 55.2 | 0.78 ± 0.01 |  |  |  | No significance | increase the most |  | 
